{"source": "patent US20070082914A1", "about": "“4-(4-Methylpiperazin-1-ylmethyl)-n-[4-methyl-3-(4-pyridin-3-yl)pyrimidin-2-ylamino)phenyl]-benzamide for treating pulmonary fibrosis” (priority 2002, published 2007)", "tested_on": "Asbestos-Exposed Mice", "assay": "Asbestos-exposed mice: morphometric analysis of first alveolar duct bifurcations", "format": "in vivo", "settings": "asbestos-exposed C57BL/6 mice, 30 days following exposure", "method": "Asbestos Exposure: Eight week old C57BL/6 mice are exposed to 15 mg/m^3 of chrysotile asbestos in inhalation chambers for a period of 5 hours, for 3 consecutive days, as described previously in detail in our earlier publications (Lasky et al. Am. J. Respir. Crit. Care Med. (1998) 157:1652-7). This asbestos exposure induces fibroblast proliferation and a morphometrically characterized lesion at the alveolar duct bifurcations (Brody et al., Am Rev Respir Dis. (1981) 123:670-9). Sham-exposed (ambient air) animals are used as controls. The groups include: sham-exposed with vehicle; asbestos-exposed with vehicle; and asbestos exposed with COMPOUND I (imatinib mesylate). Five mice from each of these […] are sacrificed 30 days following exposure and used for determining the dimensions of the alveolar duct bifurcations. […]\nMorphometric Analysis: H & E stained sections from exposed and control animals from the 30 day time point are masked. Bifurcation area is measured using an Olympus microscope with a video camera interfacing with a PC utilizing V150 imaging software (Fermin et al., J Anat. (1995) 186:469-81). The total area and perimeter of each of five first alveolar duct bifurcations is measured as previously described (Perdue et al., J. Histochem. Cytochem. (1994) 42:1061-70). […]", "note": "Where a name gives a salt, the structure may show the parent alone."}
{"smiles": "Cc1ccc(NC(=O)c2ccc(CN3CCN(C)CC3)cc2)cc1Nc1nccc(-c2cccnc2)n1", "note": "[SALT I, 4[-(4-methyl-1-piperazin-1-ylmethyl)-N-[4-methyl-3-[[4-(3-pyridinyl)-2-pyrimidinyl]amino]phenyl]benzamide methanesulfonate]", "values": [{"measurement": "First alveolar duct area", "setting": "100 mg COMPOUND I free base/kg i.p. once per day, from the day preceding exposure and for 14 days thereafter, group mean", "result": 1875, "unit": "square micrometers"}, {"measurement": "reduction of the size of the lesion (fibrotic scar at first alveolar duct bifurcations)", "setting": "100 mg free base/kg i.p. once per day, P=0.02", "result": 43, "unit": "%"}]}
